{
  "source": "patent US7989518B2",
  "about": "“Synthetic biocompatible material having an improved oxidation resistance, process for preparing the same and prosthetic articles obtained therefrom” (priority 2006, dated 2011)",
  "key": {"[1]": {"conditions": "cited from earlier work"}, "[2]": {"experiment": "Oxidation stability after gamma irradiation and aging, by FTIR oxidation index", "type": "physicochemical", "conditions": "0.5 weight % in UHMWPE", "protocol": "UHMWPE GUR 1050 (Ticona Inc, Bayport, Tex., USA) in powder form was mixed with 0.5 weight % of Lipoic Acid in powder form (Talamonti, Italy, stock n. 1050919074). The mixture was then moulded in a cell at 160° C. and at a pressure of 200 MPa.\nA comparative sample was made with the same UHMWPE GUR 1050 only, namely without mixing it with lipoic acid.\nEach sample of UHMWPE, virgin and doped with lipoic acid, was gamma irradiated to a dose of 30 kGy (Isomedix, Northborough, Mass.), then was processed into cylindrical pins of 20 mm length and 9 mm diameter.\nEach sample, virgin and doped, was then aged at 80° C. in a convection oven for 5 weeks, in air (ASTM standard F2003-02). After aging and oxidation, thin sections of […] thickness of each sample were prepared using a Leitz Wetzlar Sledge Microtome (Leica, Nussloch, Germany). The irradiated and aged sections of cylindrical pins samples were then analysed by means of Fourier Transform Infrared Spectroscopy (FTIR). The IR analysis was performed using a Nicolet Magna 860 spectrometer.\nThe effect of aging on the oxidation of virgin UHMWPE and UHMWPE doped with lipoic acid is shown in FIG. 2 and FIG. 3, respectively. An oxidation index OI was defined as the ratio of the area under 1740 cm^−1 carbonyl and 1370 cm^−1 methylene absorbance peaks."}, "[3]": {"experiment": "Thermal stability of Lipoic Acid inside UHMWPE, by FTIR spectra", "type": "physicochemical", "conditions": "UHMWPE with 0.5% wt lipoic acid heated at 150° C. for 2 hours or 200° C. for 24 hours", "protocol": "UHMWPE GUR 1050 (Ticona Inc, Bayport, Tex., USA) in powder form was mixed with 0.5 weight % of Lipoic Acid in powder form (Talamonti, Italy, stock n. 1050919074). The mixture was then moulded in a cell at 160° C. and at a pressure of 200 MPa. The purpose of these examples was to investigate the presence and stability of Lipoic Acid inside UHMWPE with which it was pre-mixed. UHMWPE commonly melts at 138° C., but Lipoic Acid melts at about 65° C. Therefore, to check the Lipoic Acid stability into the UHMWPE at high temperatures a Lipoic Acid-doped UHMWPE was tested at 150° C. and 200° C. […] Line B represents the spectrum of UHMWPE doped with LA, heated at 150° C. for 2 hours, then cooled at room temperature, in which the spectrum of pure UHMWPE was detracted as baseline."}},
  "data": [
    {"smiles": "O=C(O)CCCCC1CCSS1", "note": "(centres unmarked) [Lipoic Acid, Lipoic acid]", "values": [
      {"measurement": "toxicity on human beings", "setting": "[1]; 100 to 600 mg/day for 3 to 6 months", "value": "low toxicity"},
      {"measurement": "side effects", "setting": "[1]; dose of 50 mg/day", "value": "no side effect reported"},
      {"measurement": "antioxidant effectiveness in UHMWPE", "setting": "[2]", "value": "effective as antioxidant"},
      {"measurement": "stability of Lipoic Acid (FTIR spectrum)", "setting": "[3]", "value": "substantially unchanged"},
      {"measurement": "stability of Lipoic Acid (FTIR spectrum)", "setting": "[3]; listed as lipoic acid", "value": "stable"}
    ]}
  ]
}
